Source: publication PMC13224100, “Esterase-Responsive Mitochondria-Targeted Hydropersulfide Donors Mitigate Doxorubicin Cardiotoxicity While Preserving Anticancer Activity” (Angewandte Chemie (International ed. in English), 2025)

Experiments:
[1] = Stability of RSSH precursors with glutathione by HPLC; format: physicochemical; settings: GSH 500 µM (5 equiv), PBS pH 7.4, 37 °C; for half-life at 100 µM: PBS with glutathione (500 µM), pH 7.4, precursor 100 µM, read-out: decomposition half-life (t1/2) in the presence of GSH; for decomposition half-life (t1/2) in the presence of GSH / decomposition rate constant in the presence of GSH: precursor 100 µM; for decomposition rate constant in the presence of GSH: in min-1
Description: We next evaluated whether our newly developed precursors generate RSSH in the presence of thiols, which are abundant in biological systems. We examined their reactivity toward glutathione (GSH, 5 equiv) in PBS (pH 7.4, 37 °C), and precursor consumption was quantified by HPLC. […] We attribute this difference to their intrinsic reactivity. As shown previously,[23] AST donors can undergo nucleophilic attack either at the carbonyl carbon, producing the intended RSSH and a thiocarbonate byproduct (Scheme 3a, Path A), or at the disulfide bond, giving an unsymmetrical disulfide and a thiocarbonate intermediate (Scheme 3a, Path B). The higher electrophilicity of the perthiocarbonate carbonyl likely explains the faster consumption of AST derivatives. In contrast, and consistent with earlier studies,[24] APT-1 and APT-1-TPP react mainly through thiol–disulfide exchange (Scheme 3b, Path B), as attack at the perthiocarbamate carbonyl is disfavored due to its lower electrophilicity compared with the perthiocarbonate in AST donors. […]
(n = 3), and data are reported as mean ± standard deviation (SD).
Stability of RSSH Precursors with Glutathione by HPLC
Stock solutions of RSSH precursor (10 mM in DMSO) and GSH (20 mM in PBS, pH 7.4) were prepared immediately prior to the assay. The RSSH precursor (100 µM) was incubated with GSH (500 µM) in phosphate-buffered saline (PBS, pH 7.4) at 37 °C. At designated time points, 200 μL aliquots were withdrawn and immediately quenched by mixing with an equal volume of ice-cold 0.1% formic acid. Samples were analyzed by Agilent HPLC with UV detection using a C18 reverse-phase column (Phenomenex Luna C18, 4.6 × 150 mm, 5 μm) at 25 °C with a flow rate of 1.0 mL/min and an injection volume of 20 μL. The gradient elution (all solvents v/v, containing 0.1% trifluoroacetic acid) was as follows: 0–10 min, linear gradient from 90% water / 10% acetonitrile to 50% water / 50% acetonitrile; 10–18 min, to 10% water / 90% acetonitrile; 18–20 min, held at 10% water / 90% acetonitrile; 20–25 min, return to 90% water / 10% acetonitrile.
Absorbance was monitored at 275 nm. The percentage of precursor remaining at each time point was calculated by comparing the absorbance at 275 nm to the initial value. All experiments were performed in triplicate (n = 3), and data are reported as mean ± standard deviation (SD).
Figure S19. Stability profiles of (A) AST-2, (B) APT-1, (C) AST-2-TPP, and (D) APT-1-TPP in PBS, pH 7.4 at 37 °C in the presence of GSH. Decomposition rate constant for AST-2, APT-1, AST-2-TPP, and APT-1- […]
Decomposition half-lives for AST-2, APT-1, AST-2-TPP, and APT-1-TPP are 8.6 ± 0.1 min, 39.7 ± 1.2 min, 6.3 ± 0.1 min, and 56.2 ± 4.0 min, respectively. Data are mean ± standard deviation (SD) (n = 3)
(1 picture or pasted object on this page, not shown here)

[2] = tested on: H9c2 cells; assay: Cytoprotection against DOX-induced toxicity, CCK-8 assay; format: cell-based; settings: 4 h pretreatment, then 24 h co-treatment with DOX 5 μM
Description: We evaluated the cytoprotective effects of RSSH precursors against DOX-induced cardiotoxicity in H9c2 cardiomyoblasts. First, we assessed the cytotoxicity of the RSSH donors (AST-2, APT-1, AST-2-TPP, and APT-1-TPP) using the CCK-8 assay.[24] […] To evaluate cytoprotection, H9c2 cells were pretreated with RSSH donors for 4 h, followed by 24 h co-treatment with DOX (5 μM). As expected, DOX alone reduced cell viability to ca. 50% (Figure 4a). […] Although both compounds were protective, no enhancement of potency was observed upon TPP conjugation. […] A distinctive feature of our study is the direct comparison between mitochondria-targeted and non-targeted RSSH donors. […] TPP conjugation only modestly enhances the cytoprotective effects of RSSH donors under our experimental conditions. This outcome may reflect the intrinsic high efficacy of non-targeted RSSH donors, thereby limiting the additional benefit of mitochondrial targeting.
Figure 4. Protective effects of RSSH donors against DOX-induced cytotoxicity in H9c2 cells. Cells were pretreated with RSSH donors for 4 h, followed by exposure to DOX (5 μM) for an additional 24 h. Cell viability was assessed using the cell counting Kit-8 (CCK-8) assay. Results are expressed as mean ± SEM, n = 3; *P < 0.05, **P < 0.01, ***P < 0.001, ****P < 0.0001. Ctl = vehicle-treated group (0.01% DMSO in medium). […]
Cytoprotective Effects of RSSH Donors against Doxorubicin Toxicity
Cytoprotective studies were performed as previously described.[8] Briefly, H9c2 cells, HepG2 cells, MDA-MB-468 cells, and MCF-7 cells were seeded at a density of 7 x 10^3 cells/well. […] Additionally, in the vehicle control group, cells were treated with medium (DMEM with 10% FBS) containing 0.01% DMSO only. The cells were then further incubated for an additional 4 h before being treated with DOX (10 μL/well, with final concentration of 5 μM). After a 24 h co-incubation with DOX, each well was carefully washed three times with PBS (pH 7.4) and 100 μL o f F B S-free medium containing 10% v/v CCK-8 (Dojindo) was added. The plates were then incubated for 1-2 h before measuring absorbance at […]
The relative % cell viability was calculated as 100 times the ratio of Abs450 (RSSH donor + DOX-exposed) to Abs450 (vehicle, non-DOX-exposed). Each treatment condition was performed in 6 technical replicates per biological replicate, and the experiment was independently repeated three times (n = 3 biological replicates). Data are presented as mean ± SEM. […]

half-life at 100 µM [1] [min] | decomposition half-life (t1/2) in the presence of GSH [1] [min] | Structure (SMILES) | decomposition rate constant in the presence of GSH [1] | protection against DOX-induced cytotoxicity [2] | concentration of maximal protection [2] [µM] | concentration with significant protective effects [2] [µM]
56.2 ± 4 | 56 | CC(=O)NC(C(=O)N(C)CCC[P+](c1ccccc1)(c1ccccc1)c1ccccc1)C(C)(C)SSC(=O)N(C)CCOC(C)=O (centres unmarked) [APT-1-TPP] | 0.01236 ± 0.00066 | dose-dependent cytoprotective effect |  | 
39.7 ± 1.2 | 40 | COC(=O)C(NC(C)=O)C(C)(C)SSC(=O)N(C)CCOC(C)=O (centres unmarked) [APT-1] | 0.01749 ± 0.00052 | dose-dependent cytoprotective effect |  | 
6.3 ± 0.1 | 6 | COC(=O)SSC(C)(C)C(NC(C)=O)C(=O)N(C)CCC[P+](c1ccccc1)(c1ccccc1)c1ccccc1 (centres unmarked) [AST-2-TPP] | 0.1094 ± 0.00183 | dose-dependent protection | 25 | ≥ 1
8.6 ± 0.1 | 9 | COC(=O)SSC(C)(C)C(NC(C)=O)C(=O)OC (centres unmarked) [AST-2] | 0.08081 ± 0.00105 | dose-dependent protection | 25 | ≥ 1
